Test results taken from the supplement of paper PMC6461962.

test system: Pseudomonas fluorescens FW300-N2E2; details: medium / electron acceptor: N2E2 LB/nitrate
Procedure, shortened: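 Washed cells (final OD600 0.02, 80 µL) were added to 384-well plates of serially diluted inorganic ion salts or equimolar nitrilotriacetic acid complexes. Aerobic plates were shaken at 700 rpm at 30 °C, and anaerobic plates were left unshaken. OD600 was read at 24 h (48 h for R2A strain comparisons) and scaled between water and growth-blocking antibiotic controls, dropping wells with precipitate. IC50 came from drc R package fits of at least two biological replicate curves.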

Row | Structure (SMILES) | IC50 growth inhibition
1 | O=P[O-].[Na+] [Sodium hypophosphite monohydrate] | 306 mM
2 | O=[Si](O)O [Sodium metasilicate] | < 0.244 mM
3 | [Na+].[O]=[V](=[O])[O-] [Sodium metavanadate] | 6.94 mM
4 | [Na+].[Na+].[O]=[Mo](=[O])([O-])[O-] [Sodium molybdate] | 214 mM
5 | O=[N+]([O-])[O-].[Na+] [Sodium nitrate] | > 500 mM
6 | O=NO [Sodium nitrite] | 14.8 mM
7 | [O-][Cl+3]([O-])([O-])O [Sodium perchlorate monohydrate] | 69.8 mM
8 | [O-][I+3]([O-])([O-])O [Sodium periodate] | 0.146 mM
9 | O=P([O-])(O)O.[Na+] [Sodium phosphate monobasic monohydrate] | 2.25 mM
10 | OP(O)O [Sodium phosphite dibasic pentahydrate] | 118 mM
11 | O=P(O)(O)OP(=O)(O)O [Sodium pyrophosphate dibasic] | 4.34 mM
12 | O=[Se](=O)([O-])[O-].[Na+].[Na+] [Sodium selenate] | 189 mM
13 | O=[Se]([O-])[O-].[Na+].[Na+] [Sodium selenite pentahydrate] | 250 mM
14 | O.O.O.O.O.O.O.O.O.O.O=S(=O)([O-])[O-].[Na+].[Na+] [Sodium sulfate] | 311 mM
15 | OP(O)(O)=S [Sodium thiophosphate tribasic hydrate] | 21 mM
16 | O=S(O)(O)=S [Sodium thiosulfate] | 185 mM
17 | O.O.[Na+].[Na+].[O]=[W](=[O])([O-])[O-] [Sodium tungstate dihydrate] | 21.3 mM

same assay, conditions: medium / electron acceptor: N2E2 Lactate/aerobic

Row | Structure (SMILES) | IC50 growth inhibition
18 | [O-][Cl+2]([O-])O [Sodium Chlorate] | 15.7 mM
19 | [Cl-].[Na+] [Sodium Chloride] | 707 mM
20 | [O-][Cl+]O [Sodium Chlorite] | < 0.00244 mM
21 | O.O.O.O.O.O.O.O=[As]([O-])([O-])O.[Na+].[Na+] [Sodium arsenate dibasic heptahydrate] | < 0.244 mM
22 | OCl [Sodium hypochlorite] | > 5 mM
23 | O=P[O-].[Na+] [Sodium hypophosphite monohydrate] | 354 mM
24 | O=[Si](O)O [Sodium metasilicate] | < 0.244 mM
25 | [Na+].[O]=[V](=[O])[O-] [Sodium metavanadate] | 2.34 mM
26 | [Na+].[Na+].[O]=[Mo](=[O])([O-])[O-] [Sodium molybdate] | 162 mM
27 | O=[N+]([O-])[O-].[Na+] [Sodium nitrate] | 354 mM
28 | O=NO [Sodium nitrite] | 23 mM
29 | [O-][Cl+3]([O-])([O-])O [Sodium perchlorate monohydrate] | 235 mM
30 | [O-][I+3]([O-])([O-])O [Sodium periodate] | 27.4 mM
31 | O=P([O-])(O)O.[Na+] [Sodium phosphate monobasic monohydrate] | 30.3 mM
32 | OP(O)O [Sodium phosphite dibasic pentahydrate] | < 0.244 mM
33 | O=P(O)(O)OP(=O)(O)O [Sodium pyrophosphate dibasic] | > 50 mM
34 | O=[Se](=O)([O-])[O-].[Na+].[Na+] [Sodium selenate] | < 0.244 mM
35 | O=[Se]([O-])[O-].[Na+].[Na+] [Sodium selenite pentahydrate] | < 0.244 mM
36 | O.O.O.O.O.O.O.O.O.O.O=S(=O)([O-])[O-].[Na+].[Na+] [Sodium sulfate] | 384 mM
37 | OP(O)(O)=S [Sodium thiophosphate tribasic hydrate] | > 50 mM
38 | O=S(O)(O)=S [Sodium thiosulfate] | 355 mM
39 | O.O.[Na+].[Na+].[O]=[W](=[O])([O-])[O-] [Sodium tungstate dihydrate] | < 0.244 mM

same assay, conditions: medium / electron acceptor: N2E2 R2A/aerobic

Row | Structure (SMILES) | IC50 growth inhibition
40 | [O-][Cl+2]([O-])O [Sodium Chlorate] | 45.9 mM
41 | [Cl-].[Na+] [Sodium Chloride] | 671 mM
42 | [O-][Cl+]O [Sodium Chlorite] | 0.00662 mM
43 | O.O.O.O.O.O.O.O=[As]([O-])([O-])O.[Na+].[Na+] [Sodium arsenate dibasic heptahydrate] | 0.874 mM
44 | OCl [Sodium hypochlorite] | 3.32 mM
45 | O=P[O-].[Na+] [Sodium hypophosphite monohydrate] | > 500 mM
46 | O=[Si](O)O [Sodium metasilicate] | < 0.244 mM
47 | [Na+].[O]=[V](=[O])[O-] [Sodium metavanadate] | 8.62 mM
48 | [Na+].[Na+].[O]=[Mo](=[O])([O-])[O-] [Sodium molybdate] | 231 mM
49 | O=[N+]([O-])[O-].[Na+] [Sodium nitrate] | 400 mM
50 | O=NO [Sodium nitrite] | 8.81 mM
51 | [O-][Cl+3]([O-])([O-])O [Sodium perchlorate monohydrate] | 89.4 mM
52 | [O-][I+3]([O-])([O-])O [Sodium periodate] | 0.772 mM
53 | O=P([O-])(O)O.[Na+] [Sodium phosphate monobasic monohydrate] | 15.7 mM
54 | OP(O)O [Sodium phosphite dibasic pentahydrate] | 309 mM
55 | O=P(O)(O)OP(=O)(O)O [Sodium pyrophosphate dibasic] | 2.35 mM
56 | O=[Se](=O)([O-])[O-].[Na+].[Na+] [Sodium selenate] | 62.5 mM
57 | O=[Se]([O-])[O-].[Na+].[Na+] [Sodium selenite pentahydrate] | < 0.244 mM
58 | O.O.O.O.O.O.O.O.O.O.O=S(=O)([O-])[O-].[Na+].[Na+] [Sodium sulfate] | 183 mM
59 | OP(O)(O)=S [Sodium thiophosphate tribasic hydrate] | > 50 mM
60 | O=S(O)(O)=S [Sodium thiosulfate] | 360 mM
61 | O.O.[Na+].[Na+].[O]=[W](=[O])([O-])[O-] [Sodium tungstate dihydrate] | 237 mM
